Source: publication PMC11096398, “Chemical and biophysical characterization of novel potassium channel blocker 3-fluoro-5-methylpyridin-4-amine” (Scientific Reports, 2024)
Values joined by “and” are separate entries in the source; they are usually repeats but may differ in a detail not shown here. Identical values can stand only once. Like-named read-outs stand apart in the source and are kept apart here.

Columns and labels:
[1] = cited from earlier work
[2] = cited from earlier work; remark: listed apart in the source
[3] = design: method as in PMID 38690718; conditions: 35 min post-injection, cited from earlier work
[4] = design: method as in PMID 33090071; conditions: monkeys, 2 h post injection ref 26; cited from earlier work
[5] = cited from earlier work; remark: listed apart in the source
[6] = pKa determination by titration with HCl (Gran plot); assay type: physicochemical; conditions: n = 4
Experimental: The pKa was determined using titration according to our previously described protocol. A 1 mg/mL solution of 5Me3F4AP was prepared, of which 5 ml was titrated with 0.01 M HCl solution beyond the equivalence point. After each incremental addition of titrant, the sample was stirred and the pH reading was taken with a pH meter. The Gran plot of the titration was analyzed to obtain the pKa (see the plot in Supporting Information, Fig. S3). […] The titration was repeated four times each for each compound.

[7] = target: T1, Shaker voltage-gated potassium channel (Drosophila melanogaster, UniProt P08510); experiment: cut-open voltage clamp electrophysiology of K+ currents in Xenopus laevis oocytes expressing Shaker; assay type: cell-based, D. melanogaster
Experimental: Blocking potency of 5Me3F4AP was evaluated on the voltage-gated Shaker (homologous to mammalian Kv1.2) ion channel expressed in Xenopus laevis oocytes, as previously described. Briefly, each oocyte expressing the Shaker channel was voltage-clamped in a cut-open voltage clamp (COVC) station in order to elicit K^+ currents in response to the voltage stimulus protocol, which entailed steps of 50 ms from − 100 to 60 mV in increments of 10 mV. For COVC measurements, the external recording solution was composed (in mM) of 12 KOH, 2 Ca(OH)2, 105 NMDG-MES (N-methyl-D-glucamine)-methylsufonate, 20 HEPES (4-(2-hydroxyethyl)-1-piperazineethanesulfonic acid). The internal recording solution was composed of 120 KOH, 2 EGTA (ethylene glycol-bis(β-aminoethyl ether)-N,N,N,N-tetraacetic acid), and 20 HEPES. […] Each pH solution was adjusted with MES (2-(N-morpholino)ethanesulfonic acid). For measurements at pH = 9.1, HEPES was substituted by CHES (2-(cyclohexylamino)-ethanesulfonic acid). Each oocyte expressing the Shaker ion channel was voltage-clamped to record K^+ currents, first in the absence of 5Me3F4AP, and subsequently with the addition of 5Me3F4AP, from 0.0001 to 10 mM. Relative current (Irel) was quantified as the […] of the indicated concentration of 5Me3F4AP. Finally, K^+ currents were amplified with the oocyte clamp amplifier CA-1A (Dagan Corporation, Minneapolis, MN, USA) and digitized with the USB-1604-HS-2AO Multifunction Card (Measurement Computing, Norton, MA, USA). All systems were controlled with the GpatchMC64 program (department of anesthesiology, UCLA, Los Angeles, CA, USA) via a PC. Electrophysiology recordings were sampled at 100 kHz and filtered at 10 kHz.
Data analysis was performed as previously described. Briefly, the half-maximal inhibitory concentration of 5Me3F4AP (IC50) was determined by fitting the Irel curve to the Hill equation at each value of V and pH.
Mean values of data ± standard deviation (s.d.) are given or plotted and the number of experiments is denoted by n. Upper and lower limits of the 95% of confidence interval (CI95) are denoted as 10^logIC50+s.d and 10^logIC50-s.d , respectively.

[8] = target: T1, Shaker voltage-gated potassium channel; conditions: cited from earlier work; for IC50: pH 7.4, Hermann equation, reported previously ref 35, read-out: IC50 (at V=0) ± s.d.; for δ ± s.d. (electric fraction): pH 7.4, reported previously ref 35
[9] = target: CYP2E1 (Homo sapiens, UniProt P05181); experiment: competitive CYP2E1 inhibition assay (Vivid CYP2E1 screening kit)
Experimental: The relative metabolic stability towards CYP2E1 was assessed with the competitive CYP2E1 inhibition assay utilizing the life technologies™ vivid® CYP2E1 screening kit, as described in previous studies. In this assay, fluorescence emitted by the metabolic product of a specific CYP2E1 substrate included in the kit, was measured in the absence and presence of substrate competitors.
Afterwards, 50 µL master pre-mix 2× (40 nM) CYP2E1 BACULOSOMES® and 2× (0.6 units/mL) vivid® regeneration system in 1× reaction buffer) was added to each well. The plate was incubated for 10 min at room temperature to allow the compounds to interact with the CYP2E1 in the absence of enzyme turnover. Next, the reaction was initiated by adding 10 µL per well of 10× (100 μM) Vivid® substrate (2H-1-benzopyran-3-carbonitrile,7-(ethoxy-methoxy)-2-oxo-(9Cl)) and 10× (300 μM) Vivid® NADP^+ mixture. Immediately (in less than 2 min), the plate was transferred into the fluorescent plate reader and fluorescence was monitored over 60 min (reads in 1 min intervals) at 415 nm as excitation wavelength and 460 nm as emission wavelength. The obtained reads were plotted using GraphPad Prism 9.
A similar vivid® CYP2E1 assay was conducted as described above. […] The plate fluorescence was monitored over 60 min (reads in 1 min intervals) at 415 nm as excitation wavelength and 460 nm as emission wavelength. The reads at 60 min (recalculated by the linear trend line equation) of each concentration were used and fitted with GraphPad Prism9 dose-response-inhibition (concentration is log) curve fitting with weighting method (weighted by 1/Y^2) to calculate the IC50 values. A similar procedure was used for determining the IC50 of 3F4AP.

[10] = parallel artificial membrane permeability assay-blood-brain barrier (BBB) kit; assay type: in vitro ADME; conditions: PAMPA-BBB; for Papp at 18 h, 500 µM: PBS pH 7.2, 18 h, n = 3, read-out: permeability to an artificial brain membrane (Pe)
Experimental: The permeability rates of 5Me3F4AP and derivatives were determined using parallel artificial membrane permeability assay-blood–brain barrier (BBB) kit (BioAssay systems, Hayward, USA) following the manufacturer’s protocol. Initially, solutions of each test compound were prepared in DMSO at a concentration of 10 mM. These stock solutions along with the stock solutions of control compounds (high control: promazine hydrochloride, low control: diclofenac) were then diluted with PBS (pH = 7.2) to obtain the donor solutions with a final concentration of 500 μM. At the same time, 200 μM of equilibrium standards for each compound and a DMSO blank control solution were prepared.
In the experimental setup, 300 μL of PBS was added to the desired well of the acceptor plate, and 5 μL of BBB lipid solution in dodecane was added to membranes of the donor plate. Next, 200 μL of the donor solutions of each test compound and each permeability control were added to the duplicate wells of the donor plate. The donor plate was carefully placed on the acceptor plate and incubator for 18 h at room temperature. After incubation, UV absorption measurements were conducted using 100 μL of the resulting solutions from the acceptor plate and the equilibrium standards. UV absorption of the controls was measured by running a UV scan in the range of 200–500 nm. UV absorption of 5Me3F4AP and derivatives was measured using HPLC equipped with a UV detector and C18 column.

[11] = octanol-water partition coefficient (logD) at pH 7.4; assay type: physicochemical
Experimental: The octanol–water partition coefficient (logD) at pH 7.4 was determined according to our previous reported protocol. Briefly, PBS (900 μL), 1-octanol (900 μL), and a 10 mg/ mL aqueous solution of each compound (2 μL) were added to a 2 mL HPLC vial. The compounds were partitioned between the layers via vortexing and centrifuged at 1000 g for 1 min to allow for phase separation. A 10 μL portion was taken from each layer (autoinjector was set up to draw volume at two different heights) and analyzed by HPLC. The relative concentration in each phase was determined by integrating the area under each peak and comparing the ratio of the areas from the octanol and aqueous layers. A calibration curve was performed to ensure that the concentrations detected were within the linear range of the detector (see Figs. S1 and S2 in Supporting Information). This procedure was repeated four times for each compound.

[12] = compound solution titrated with 0.01 M HCl
[13] = final concentration 25 µM, 60 min kinetic measurement

Sequence of CYP2E1 (P05181 whole entry): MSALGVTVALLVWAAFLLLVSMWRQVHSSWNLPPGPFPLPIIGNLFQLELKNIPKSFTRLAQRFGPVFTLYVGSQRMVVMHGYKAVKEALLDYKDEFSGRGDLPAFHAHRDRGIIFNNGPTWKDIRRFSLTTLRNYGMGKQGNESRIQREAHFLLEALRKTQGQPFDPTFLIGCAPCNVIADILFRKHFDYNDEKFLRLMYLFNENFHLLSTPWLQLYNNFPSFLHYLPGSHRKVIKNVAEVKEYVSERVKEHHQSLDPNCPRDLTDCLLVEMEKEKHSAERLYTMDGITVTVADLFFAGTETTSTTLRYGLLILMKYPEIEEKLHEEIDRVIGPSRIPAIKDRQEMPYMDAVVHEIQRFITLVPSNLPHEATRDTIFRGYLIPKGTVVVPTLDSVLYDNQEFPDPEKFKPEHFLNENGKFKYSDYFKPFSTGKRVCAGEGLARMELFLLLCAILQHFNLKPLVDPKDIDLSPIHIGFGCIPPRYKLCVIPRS
T1 sequence (P08510 whole entry): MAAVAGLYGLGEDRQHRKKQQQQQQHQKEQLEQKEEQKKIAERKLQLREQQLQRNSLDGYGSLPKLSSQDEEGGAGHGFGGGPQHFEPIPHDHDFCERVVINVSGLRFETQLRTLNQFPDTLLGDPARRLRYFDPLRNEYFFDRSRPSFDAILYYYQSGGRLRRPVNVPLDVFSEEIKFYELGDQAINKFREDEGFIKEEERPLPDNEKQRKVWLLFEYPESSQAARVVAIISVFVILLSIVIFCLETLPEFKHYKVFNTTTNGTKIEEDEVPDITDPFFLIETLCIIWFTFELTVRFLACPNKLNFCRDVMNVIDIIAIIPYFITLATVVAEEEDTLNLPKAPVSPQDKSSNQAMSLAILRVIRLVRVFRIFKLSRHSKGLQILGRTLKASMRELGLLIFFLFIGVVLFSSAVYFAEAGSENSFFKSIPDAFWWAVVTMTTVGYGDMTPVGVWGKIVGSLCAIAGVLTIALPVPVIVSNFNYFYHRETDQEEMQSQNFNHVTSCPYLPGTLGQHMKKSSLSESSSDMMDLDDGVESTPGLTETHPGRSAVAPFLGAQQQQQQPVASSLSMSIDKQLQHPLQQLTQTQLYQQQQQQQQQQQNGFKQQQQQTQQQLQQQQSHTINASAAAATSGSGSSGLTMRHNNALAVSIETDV

Compound: Nc1ccncc1[18F] [[^18F]3F4AP, [^18F]3-fluoro-4-aminopyridine]
- logD [1]: 0.41
- pKa [2]: 7.65
- plasma parent fraction (PPF) ([3]; anesthetized mice (isoflurane), n = 10 ref 29): 74.8 ± 1.6
- plasma parent fraction (PPF) ([3]; awake mice, n = 11 ref 29): 17.7 ± 1.7
- plasma parent fraction (PPF) [4]: > 90%
- plasma parent fraction (PPF) remaining ([5]; humans, 30 min post injection ref 27): < 50%

Compound: Cc1cnccc1N [3Me4AP, 3-methyl-4AP]
- pKa [6, 12]: > 9
- change of IC50 when pH was increased to 9.1 [7]: three-fold
- δ ± s.d. (electric fraction) [7]: 0.28 ± 0.10
- IC50 ([7]; IC50 (at V=0) ± s.d.): 44 µM and 10 µM
- δ ± s.d. (electric fraction) ([7]; pH 9.1): 0.47 ± 0.03
- IC50 [8]: 21 ± 1 µM
- δ ± s.d. (electric fraction) [8]: 0.43 ± 0.10

Compound: Cc1cncc(F)c1N [5Me3F4AP, 3-fluoro-5-methylpyridin-4-amine]
- reduction in fluorogenic emission / reaction rate vs. blank [9, 13]: reaction rate between 4AP and 3F4AP
- IC50 at 60 min ([9]; human, recombinant CYP2E1 BACULOSOMES (Vivid CYP2E1 screening kit), IC50 for CYP2E1 inhibition, reads at 60 min, three replicates): 36.2 ± 2.5 µM
- CYP2E1-mediated oxidation rate relative to 3F4AP ([9]; kinetic measurement): about two times slower than 3F4AP
- pKa [6]: 7.46 ± 0.01
- permeation rate relative to 3F4AP [10]: approximately three times faster than 3F4AP
- Papp at 18 h, 500 µM [10]: 8.81 ± 1.83 ×10⁻⁶ cm/s
- block of Shaker K+ currents ([7]; 1 mM, pH 6.4, 7.4 and 9.1): efficiently blocks the channels
- Hill parameter h ([7]; Hill fit at 40 mV, all experimental conditions): ≈ 1
- change of IC50 when pH was increased to 9.1 ([7]; IC50 at 40 mV, Hill equation): increased around three-fold
- δ ± s.d. (electric fraction) ([7]; pH 6.4): 0.39 ± 0.04
- IC50 ([7]; pH 6.4, Hermann equation, read-out: IC50 (at V=0) ± s.d.): 118 ± 17 µM
- δ ± s.d. (electric fraction) ([7]; pH 7.4): 0.40 ± 0.02
- IC50 ([7]; pH 7.4, Hermann equation, read-out: IC50 (at V=0) ± s.d.): 161 ± 25 µM
- blocking potency compared with related compounds ([7]; pH 7.4, IC50 at 40 mV): very similar to that of 4AP and 3F4AP
- δ ± s.d. (electric fraction) ([7]; pH 9.1): 0.40 ± 0.04
- IC50 ([7]; pH 9.1, Hermann equation, read-out: IC50 (at V=0) ± s.d.): 373 ± 84 µM
- δ value (electric fraction) ([7]; pH not specified): ~0.4
- logD ([11]; 1-octanol/PBS, pH 7.4, pH 7.4, n = 4): 0.664 ± 0.005
- logD (octanol/water partition coefficient) ([11]; pH 7.4, n = 4): 0.66

Compound: Nc1ccncc1F [3F4AP, 3-fluoro-4-aminopyridine]
- reduction in fluorogenic emission / reaction rate vs. blank [9, 13]: substantial decrease in rate
- IC50 ([9]; human, IC50 for CYP2E1 inhibition, reads at 60 min, three replicates): 15.4 ± 5.1 µM
- pKa [6]: 7.37 ± 0.07
- Papp at 18 h, 500 µM [10]: 3.11 ± 0.29 ×10⁻⁶ cm/s
- change of IC50 when pH was increased to 9.1 [7]: increased around three-fold
- δ ± s.d. (electric fraction) [7]: 0.41 ± 0.03
- IC50 ([7]; IC50 (at V=0) ± s.d.): 159 µM and 65 µM
- δ ± s.d. (electric fraction) ([7]; pH 9.1): 0.52 ± 0.02
- IC50 [8]: 122 ± 4 µM
- δ ± s.d. (electric fraction) [8]: 0.46 ± 0.10

Compound: Nc1ccncc1 [4AP, 4-aminopyridine]
- reduction in fluorogenic emission / reaction rate vs. blank [9, 13]: minor reduction in fluorogenic emission
- pKa [6, 12]: > 9
- pKa ([6]; solution of the compound titrated with 0.01 M HCl): 9.19
- δ ± s.d. (electric fraction) [7]: 0.41 ± 0.06
- δ ± s.d. (electric fraction) ([7]; pH 9.1): 0.41 ± 0.05
- parent fraction in plasma ([5]; 24 h post oral administration ref 42): ~ 70%
- δ ± s.d. (electric fraction) [8]: 0.41 ± 0.08

Compound: N[C@@H]1C[C@H]1c1ccccc1 (racemic) [tranylcypromine]
- reduction in fluorogenic emission / reaction rate vs. blank [9]: most pronounced reduction in fluorogenic emission
